Assay [1] has as its target T1, δ opioid receptor (Mus musculus, UniProt P32300). The conditions noted are these: δ antagonist activity; ref Schiller et al.[10]; cited from earlier work.
Assay [2] deals with T1, δ opioid receptor. Description: MVD.
Assay [3] deals with μ opioid receptor. Nature of the assay: GPI. Set-up: species or system guinea pig.
Assay [4] addresses μ opioid receptor (UniProt P33535). Particulars: read-out: Ki^μ; ref Schiller et al.[10]; cited from earlier work.
The target in assay [5] is κ opioid receptor (UniProt P41144). The conditions noted are these: read-out: Ki^κ; ref Schiller et al.[10]; cited from earlier work.
Chain of κ opioid receptor (P41144 whole entry): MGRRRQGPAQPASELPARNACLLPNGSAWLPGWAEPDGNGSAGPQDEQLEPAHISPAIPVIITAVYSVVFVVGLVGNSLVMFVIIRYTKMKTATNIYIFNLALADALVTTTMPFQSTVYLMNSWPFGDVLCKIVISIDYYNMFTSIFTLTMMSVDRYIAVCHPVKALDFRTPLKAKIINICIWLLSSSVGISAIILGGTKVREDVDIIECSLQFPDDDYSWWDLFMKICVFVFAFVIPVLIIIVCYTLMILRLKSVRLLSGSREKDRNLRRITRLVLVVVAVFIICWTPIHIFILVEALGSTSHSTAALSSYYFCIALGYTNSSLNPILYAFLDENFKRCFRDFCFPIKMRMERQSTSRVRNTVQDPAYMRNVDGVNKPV
Assay [6] concerns μ opioid receptor. Particulars: result in words; ref Schiller et al.[10]; cited from earlier work.

We go through 5 compounds from PMC2783503 (Journal of medicinal chemistry, 2009).

One may read the Ki as the equilibrium dissociation constant of an inhibitor or competing ligand from its target.

Like-named read-outs stand apart in the source and are kept apart here. Non-standard residues stand in square brackets, D forms with d. Residues, ends and D or L forms follow the SMILES beside them. Phe(2,6-Me2,4-CONH2) = Cc1cc(C(N)=O)cc(C)c1C[C@H](N)C(=O)O; Dmt = Cc1cc(O)cc(C)c1C[C@H](N)C(=O)O; Tic = O=C(O)[C@@H]1Cc2ccccc2CN1

T1 sequence (P32300 whole entry): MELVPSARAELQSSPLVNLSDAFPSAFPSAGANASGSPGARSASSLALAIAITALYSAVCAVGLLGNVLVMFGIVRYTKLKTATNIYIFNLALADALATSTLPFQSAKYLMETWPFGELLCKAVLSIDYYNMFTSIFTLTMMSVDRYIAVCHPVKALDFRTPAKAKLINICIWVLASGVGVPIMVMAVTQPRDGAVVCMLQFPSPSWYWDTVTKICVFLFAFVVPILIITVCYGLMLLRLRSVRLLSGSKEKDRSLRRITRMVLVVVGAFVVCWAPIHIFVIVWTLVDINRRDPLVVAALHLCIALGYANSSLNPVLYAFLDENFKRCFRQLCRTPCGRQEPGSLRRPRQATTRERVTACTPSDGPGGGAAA
Chain of μ opioid receptor (UniProt P33535) (P33535 whole entry): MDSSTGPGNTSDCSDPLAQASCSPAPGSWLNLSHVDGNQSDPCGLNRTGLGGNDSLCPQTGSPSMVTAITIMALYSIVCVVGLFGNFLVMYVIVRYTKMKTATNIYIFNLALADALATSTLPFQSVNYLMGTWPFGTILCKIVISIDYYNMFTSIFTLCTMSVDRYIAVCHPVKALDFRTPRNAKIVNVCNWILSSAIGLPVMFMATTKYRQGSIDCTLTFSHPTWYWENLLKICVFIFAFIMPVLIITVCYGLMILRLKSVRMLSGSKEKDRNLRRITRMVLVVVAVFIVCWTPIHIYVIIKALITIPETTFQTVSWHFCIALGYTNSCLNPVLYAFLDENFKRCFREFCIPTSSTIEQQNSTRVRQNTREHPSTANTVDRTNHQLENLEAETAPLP

H-Y[Tic]FF-OH [compound 8]: in assay [1], the “MVD Ke^δ” value was 4.80 ± 0.20 nM.

In assay [2], `N[C@@H](Cc1ccc(O)cc1)C(=O)N1Cc2ccccc2C[C@H]1C(=O)O` [compound 9, H-Tyr-Tic-OH] (H-Tyr-[Tic]-OH) showed a Kb of 263 ± 40 nM. The GPI activity entry in assay [3] (result in words) was “inactive”. With H-[Dmt]-[Tic]-OH [compound 11], the Ki was 1360 ± 160 nM in assay [4] and above 1000 nM in assay [5]. The GPI activity entry in assay [6] is “inactive”.

Turning to H-[Dmt][Tic]FF-OH [compound 10], the “MVD Ke^δ” value in assay [1] is given as 0.196 ± 0.035 nM. In assay [2], `Cc1cc(C(N)=O)cc(C)c1C[C@H](N)C(=O)N1Cc2ccccc2C[C@H]1C(=O)N[C@@H](Cc1ccccc1)C(=O)N[C@@H](Cc1ccccc1)C(=O)O` [compound 12, H-Cdp-Tic-Phe-Phe-OH] (H-[Phe(2,6-Me2,4-CONH2)][Tic]FF-OH) gave a Kb of 0.627 ± 0.058 nM. For the same compound, in assay [3] (μ antagonist activity), the “GPI Ke^μ” value amounted to 3.07 ± 0.26 µM.
